According to PubChem BioAssay (NCI):
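Following 48 hours of exposure in 96-well plates, responses at five concentrations were used to interpolate endpoints linearly. GI50 marks 50% less growth. TGI denotes the concentration required for complete inhibition of growth.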

Tests used:
Assay in all cases: DTP human tumour cell line panel, 48 h
SNB-75 CNS = system: SNB-75 CNS
MDA-MB-435 = system: MDA-MB-435
KM12 colon = system: KM12 colon
DU-145 prostate = system: DU-145 prostate
MDA-MB-231 breast = system: MDA-MB-231 breast
A498 renal = system: A498 renal
IGROV1 ovarian = system: IGROV1 ovarian
COLO 205 colon = system: COLO 205 colon
SF-539 CNS = system: SF-539 CNS
OVCAR-4 ovarian = system: OVCAR-4 ovarian
PC-3 prostate = system: PC-3 prostate
CCRF-CEM leukemia = system: CCRF-CEM leukemia
A549 NSCLC = system: A549 NSCLC
K-562 leukemia = system: K-562 leukemia
SK-MEL-5 melanoma = system: SK-MEL-5 melanoma
MCF7 breast = system: MCF7 breast
M14 melanoma = system: M14 melanoma
SF-295 CNS = system: SF-295 CNS
HT29 colon = system: HT29 colon
NCI-H23 lung = system: NCI-H23 lung
T-47D breast = system: T-47D breast
UACC-62 melanoma = system: UACC-62 melanoma
NCI-H522 lung = system: NCI-H522 lung
OVCAR-3 ovarian = system: OVCAR-3 ovarian
RXF 393 renal = system: RXF 393 renal
HCT-15 colon = system: HCT-15 colon
BT-549 breast = system: BT-549 breast
HCT-116 colon = system: HCT-116 colon
OVCAR-5 ovarian = system: OVCAR-5 ovarian
MOLT-4 leukemia = system: MOLT-4 leukemia
HOP-62 NSCLC = system: HOP-62 NSCLC
RPMI-8226 leukemia = system: RPMI-8226 leukemia
SF-268 CNS = system: SF-268 CNS
U251 CNS = system: U251 CNS
HS 578T breast = system: HS 578T breast
SW-620 colon = system: SW-620 colon
LOX IMVI melanoma = system: LOX IMVI melanoma
SN12C renal = system: SN12C renal
SNB-19 CNS = system: SNB-19 CNS
NCI-H460 lung = system: NCI-H460 lung
EKVX NSCLC = system: EKVX NSCLC
786-0 renal = system: 786-0 renal
SR leukemia = system: SR leukemia
HL-60(TB) leukemia = system: HL-60(TB) leukemia
SK-MEL-28 melanoma = system: SK-MEL-28 melanoma
NCI/ADR-RES ovarian = system: NCI/ADR-RES ovarian
SK-OV-3 ovarian = system: SK-OV-3 ovarian
NCI-H226 lung = system: NCI-H226 lung
HCC-2998 colon = system: HCC-2998 colon
CAKI-1 renal = system: CAKI-1 renal
ACHN renal = system: ACHN renal
OVCAR-8 ovarian = system: OVCAR-8 ovarian
UO-31 renal = system: UO-31 renal
UACC-257 melanoma = system: UACC-257 melanoma
HOP-92 NSCLC = system: HOP-92 NSCLC
TK-10 renal = system: TK-10 renal
SK-MEL-2 melanoma = system: SK-MEL-2 melanoma
MALME-3M melanoma = system: MALME-3M melanoma

`CCCCCCCCCCCCCCCCCCNC(=O)[C@H]1CSC(c2ccc(OC)c(F)c2)N1` (stereo not given in full) showed a GI50 (SNB-75 CNS) of 3.1 µM, a TGI (SNB-75 CNS) of 14.1 µM and a GI50 (MDA-MB-435) of 1.22 µM. It also gave a TGI (MDA-MB-435) of 2.91 µM, a GI50 (KM12 colon) of 2.34 µM and a TGI (KM12 colon) of 7.9 µM. The GI50 (DU-145 prostate) was 24.2 µM, the TGI (DU-145 prostate) was > 54.6 µM and the GI50 (MDA-MB-231 breast) was 1.9 µM. The TGI (MDA-MB-231 breast) was 5.16 µM, the TGI (A498 renal) was > 38.3 µM and the GI50 (IGROV1 ovarian) was 6.65 µM. The TGI (IGROV1 ovarian) was 29.1 µM, the GI50 (COLO 205 colon) was > 39.1 µM and the TGI (COLO 205 colon) was > 60.5 µM. The GI50 (SF-539 CNS) was 4.67 µM, the TGI (SF-539 CNS) was > 37.6 µM and the GI50 (OVCAR-4 ovarian) was 14 µM. The TGI (OVCAR-4 ovarian) was > 41.3 µM, the GI50 (PC-3 prostate) was 6.09 µM and the TGI (PC-3 prostate) was 28.3 µM. For the same compound, the GI50 (CCRF-CEM leukemia) was 0.731 µM, the TGI (CCRF-CEM leukemia) was 8.13 µM and the GI50 (A549 NSCLC) was 9.87 µM. The TGI (A549 NSCLC) was 38.1 µM, the GI50 (K-562 leukemia) was 2 µM and the TGI (K-562 leukemia) was 11.2 µM. It also gave a GI50 (SK-MEL-5 melanoma) of 2.92 µM, a TGI (SK-MEL-5 melanoma) of 10.3 µM and a GI50 (MCF7 breast) of 0.386 µM. The TGI (MCF7 breast) was 1.4 µM, the GI50 (M14 melanoma) was 1.43 µM and the TGI (M14 melanoma) was 3.5 µM. The GI50 (SF-295 CNS) was 26 µM, the TGI (SF-295 CNS) was > 52.2 µM and the GI50 (HT29 colon) was 5.05 µM. The TGI (HT29 colon) was > 41.4 µM, the GI50 (NCI-H23 lung) was 7.22 µM and the TGI (NCI-H23 lung) was 27 µM. It also gave a GI50 (T-47D breast) of 2.21 µM, a TGI (T-47D breast) of 6.57 µM and a GI50 (UACC-62 melanoma) of 1.72 µM. For the same compound, the TGI (UACC-62 melanoma) was 3.82 µM, the GI50 (NCI-H522 lung) was > 29.4 µM and the TGI (NCI-H522 lung) was > 51.6 µM. The GI50 (OVCAR-3 ovarian) was 7.84 µM, the TGI (OVCAR-3 ovarian) was > 50.2 µM and the GI50 (RXF 393 renal) was 2.34 µM. For the same compound, the TGI (RXF 393 renal) was 5.5 µM, the GI50 (HCT-15 colon) was > 37.1 µM and the TGI (HCT-15 colon) was > 53.1 µM. It also gave a GI50 (BT-549 breast) of 1.71 µM, a TGI (BT-549 breast) of 4.04 µM and a GI50 (HCT-116 colon) of 1.68 µM. For the same compound, the TGI (HCT-116 colon) was 3.5 µM, the GI50 (OVCAR-5 ovarian) was 3.55 µM and the TGI (OVCAR-5 ovarian) was > 33.4 µM. The GI50 (MOLT-4 leukemia) was 1.48 µM, the TGI (MOLT-4 leukemia) was 9.18 µM and the GI50 (HOP-62 NSCLC) was 2.16 µM. For the same compound, the TGI (HOP-62 NSCLC) was 5.12 µM, the GI50 (RPMI-8226 leukemia) was 0.435 µM and the TGI (RPMI-8226 leukemia) was 1.91 µM. For the same compound, the GI50 (SF-268 CNS) was 1.73 µM, the TGI (SF-268 CNS) was 4.14 µM and the GI50 (U251 CNS) was 4.48 µM. It also gave a TGI (U251 CNS) of 22.9 µM, a GI50 (HS 578T breast) of 4.29 µM and a TGI (HS 578T breast) of 20.3 µM. The GI50 (SW-620 colon) was 1.5 µM, the TGI (SW-620 colon) was 5.71 µM and the GI50 (LOX IMVI melanoma) was 2.68 µM. The TGI (LOX IMVI melanoma) was 15.8 µM, the GI50 (SN12C renal) was 1.52 µM and the TGI (SN12C renal) was 3.39 µM. For the same compound, the GI50 (SNB-19 CNS) was 21.2 µM, the TGI (SNB-19 CNS) was > 52.1 µM and the GI50 (NCI-H460 lung) was 0.606 µM. For the same compound, the TGI (NCI-H460 lung) was 2.02 µM, the GI50 (EKVX NSCLC) was 3.93 µM and the TGI (EKVX NSCLC) was 17.2 µM. For the same compound, the GI50 (786-0 renal) was 7.18 µM, the TGI (786-0 renal) was > 46.2 µM and the GI50 (SR leukemia) was 0.641 µM. It also gave a TGI (SR leukemia) of 2.88 µM, a GI50 (HL-60(TB) leukemia) of 1.96 µM and a TGI (HL-60(TB) leukemia) of 4.65 µM. The GI50 (SK-MEL-28 melanoma) was 1.42 µM, the TGI (SK-MEL-28 melanoma) was 3.52 µM and the GI50 (NCI/ADR-RES ovarian) was 2.52 µM. The TGI (NCI/ADR-RES ovarian) was 6.22 µM, the GI50 (SK-OV-3 ovarian) was > 42 µM and the TGI (SK-OV-3 ovarian) was > 58 µM. It also gave a GI50 (NCI-H226 lung) of 2.28 µM, a TGI (NCI-H226 lung) of 6.86 µM and a GI50 (HCC-2998 colon) of 1.98 µM. It also gave a TGI (HCC-2998 colon) of 7.02 µM, a GI50 (CAKI-1 renal) of 3.98 µM and a TGI (CAKI-1 renal) of 16.9 µM. For the same compound, the GI50 (ACHN renal) was > 36.8 µM, the TGI (ACHN renal) was > 52.1 µM and the GI50 (OVCAR-8 ovarian) was 2.56 µM. The TGI (OVCAR-8 ovarian) was 11.4 µM, the GI50 (UO-31 renal) was > 32.8 µM and the TGI (UO-31 renal) was > 48.4 µM. For the same compound, the GI50 (UACC-257 melanoma) was > 19.9 µM, the TGI (UACC-257 melanoma) was > 44.1 µM and the GI50 (HOP-92 NSCLC) was 7.48 µM. The TGI (HOP-92 NSCLC) was 28.9 µM, the GI50 (TK-10 renal) was 28.3 µM and the TGI (TK-10 renal) was > 57.7 µM. The GI50 (SK-MEL-2 melanoma) was 2.27 µM, the TGI (SK-MEL-2 melanoma) was 5.48 µM and the GI50 (MALME-3M melanoma) was > 26.2 µM. The TGI (MALME-3M melanoma) was > 45.5 µM.
